The numbers were not newly measured in patent publication US4803081A, “New pharmaceutical preparations with extended release” (Aktiebolaget Hassle, priority 1986, dated 1989), which cites them from elsewhere.

≈ marks a conversion by molar mass, not a printed value. Where two headings read alike, the source gives them in different places.

For the data set the following is noted: for solubility (in words): very low = less than 0.1 per cent by weight in water.

In the case of `CCOC(=O)C1=C(C)NC(C)=C(C(=O)OC)C1c1cccc(Cl)c1Cl` (centres unmarked) [felodipine, 4-(2,3-dichlorophenyl)-1,4-dihydro-2,6-dimethyl-3,5-pyridinedicarboxylic acid ethyl methyl ester], the “solubility (in words)” value is given as “very low solubility”. Also, where the note is “listed as Felodipine”, the “solubility (in words)” value was “practically insoluble”. The solubility in water (water) was 0.5 µg/mL (≈ 1.3 µM).

As for `COC1=CC(=O)C[C@@H](C)[C@]12Oc1c(Cl)c(OC)cc(OC)c1C2=O` [griseofulvin], the “solubility (in words)” value is on record as “very low solubility”.

For the molecule `O=C1NC(=O)C(c2ccccc2)(c2ccccc2)N1` [phenytoin], the “solubility (in words)” value is given as “very low solubility”.
